Read-outs that look alike come from different tables or passages of the source.
Biological target: CDK4/cyclin D1 (Homo sapiens (Human), UniProt P11802)
Assay: CDK4/cyclin D1 enzymatic activity assay (Protocol A, Lance TR-FRET)
Format: biochemical
Settings: CDK4/cyclin D1, 175 nM pRb152, 3 μM ATP
Experimental: A 384-well microtiter Lance TR-FRET (time-resolved-fluorescence energy transfer) endpoint assay was used for CDK4/cyclin D1 kinase activity measurements. The same assay was used for IC50 determination of small molecule inhibitors. In general, the kinase reactions were carried out in 30 μL volumes in the reaction solution containing the following: 2 μL compound (in 20% DMSO), 18 uL CDK4/cyclin D1 in Assay Buffer (50 mM HEPES, pH 7.5, 5 mM MgCl2, 2 mM MnCl2, 1 mM DTT, 0.05% BSA, 0.02% Tween-20), 10 μL of the mixture of pRb152 and ATP. The final reaction mixture contains compound (inhibitor) with the concentration varying from […], 2% DMSO, 0.3 nM CDK4/cyclin D1, 175 nM pRb152, and 3 μM ATP (Amersham Pharmacia, Cat. No. 27-2056-01). All reactions were run at room temperature in 384-well white flat-bottom OptiPlates (Perkin Elmer, Cat. No. 6007290) for 60 min then were quenched by the addition of 10 μL of 120 mM EDTA. The signals were captured by the addition of 40 μL of the Detection Solution containing the following: Detection Buffer (50 mM HEPES, pH 7.5, 30 mM EDTA, 0.1% Triton x-100, 0.05% BSA), 70 ng/mL anti-phospho-pRb(S780) (Cell Signaling Technology, Cat. No. 9307S), 1 nM Lance Eu-W1024-Rabbit anti-IgG (Perkin Elmer, Cat. No. AD0082), and 20 nM SureLight™ Allophycocyanin-Streptavidin (Perkin Elmer, Cat. No. CR130-100). The resulted solutions were incubated at room temperature for 2 hours before read on the Evision Multilabel Reader (Perkin Elmer, Envision 2102-0010). Note: IC50<0.005 nM or IC50>10 μM indicates the true IC50 is out of detection range.
CDK4/cyclin D1 recombinant protein used in the enzymatic activity assay was prepared by coexpressing pDEST10-CDK4 (N-terminal His6) and pFastBacDual-GST-hCyclinD1 viruses in Sf21 cells. The overexpressed protein was purified by Ni-NTA affinity pull down to >80% pure by Sizing HPLC.

[1] = 60 min, room temperature, read-out: IC50 against CDK4 kinase
[2] = bound stated, read-out: IC50 values against CDK4

Chain of CDK4/cyclin D1 (P11802 whole entry): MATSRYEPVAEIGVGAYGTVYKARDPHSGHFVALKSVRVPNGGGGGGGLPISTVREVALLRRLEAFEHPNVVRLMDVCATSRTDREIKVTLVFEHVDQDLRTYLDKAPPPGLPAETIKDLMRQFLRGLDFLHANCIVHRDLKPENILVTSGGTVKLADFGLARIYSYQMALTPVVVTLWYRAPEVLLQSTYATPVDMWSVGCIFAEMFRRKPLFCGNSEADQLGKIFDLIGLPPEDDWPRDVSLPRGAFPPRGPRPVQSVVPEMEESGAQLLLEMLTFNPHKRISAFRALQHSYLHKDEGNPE
Chain of CDK4/cyclin D1 (P24385 whole entry partner): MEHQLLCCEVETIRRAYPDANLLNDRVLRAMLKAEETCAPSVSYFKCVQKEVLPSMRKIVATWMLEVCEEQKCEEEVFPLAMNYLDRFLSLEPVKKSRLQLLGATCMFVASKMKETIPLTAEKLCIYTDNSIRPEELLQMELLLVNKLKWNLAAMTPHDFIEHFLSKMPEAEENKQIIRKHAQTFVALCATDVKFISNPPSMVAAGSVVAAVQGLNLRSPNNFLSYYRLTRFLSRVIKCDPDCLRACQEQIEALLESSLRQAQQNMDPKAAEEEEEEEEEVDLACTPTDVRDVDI

IC50 [1] [nM] | IC50 [2] [nM] | SMILES
12 |  | Cc1nn(C)c(C)c1-c1cc(C(=O)c2nc3ccc(N4CCC(N(C)C)CC4)nc3[nH]2)ccc1C#N [Example 173, 4-[5-(4-Dimethylamino-piperidin-1-yl)-3H-imidazo[4,5-b]pyridine-2-carbonyl]-2-(1,3,5-trimethyl-1H-pyrazol-4-yl)-benzonitrile]
 | < 10000 | Cc1cc(F)ncc1-c1cc(C(=O)c2nc3ccc(N4CCC(N(C)C)CC4)cc3[nH]2)ccn1 [Example 119, [6-(4-Dimethylamino-piperidin-1-yl)-1H-benzoimidazol-2-yl]-(6′-fluoro-4′-methyl-[2,3′]bipyridinyl-4-yl)-methanone]
4 |  | CN(C)C1CCN(c2ccc3nc(C(=O)c4ccc(C#N)c(-c5cncc6[nH]ccc56)c4)[nH]c3n2)CC1 [Example 140, 4-[5-(4-Dimethylamino-piperidin-1-yl)-3H-imidazo[4,5-b]pyridine-2-carbonyl]-2-(1H-pyrrolo[2,3-c]pyridin-4-yl)-benzonitrile]
 | < 10000 | CN(C)C1CCN(c2ncc3nc(C(=O)c4ccnc(-c5cncc6ccccc56)c4)[nH]c3n2)CC1 [Example 133, [2-(4-Dimethylamino-piperidin-1-yl)-9H-purin-8-yl]-(2-isoquinolin-4-yl-pyridin-4-yl)-methanone]
 | < 10000 | Cc1nn(C)c(C)c1-c1cc(C(=O)c2nc3ccc(N4CC5(CNC5)C4)nc3[nH]2)ccc1C#N [Example 207, 4-[5-(2,6-Diaza-spiro[3.3]hept-2-yl)-3H-imidazo[4,5-b]pyridine-2-carbonyl]-2-(1,3,5-trimethyl-1H-pyrazol-4-yl)-benzonitrile]
 | < 10000 | COc1ccc(F)c(F)c1-c1cc(C(=O)c2ncc[nH]2)ccn1 [Example 66, [2-(2,3-Difluoro-6-methoxy-phenyl)-pyridin-4-yl]-(1H-imidazol-2-yl)-methanone]
 | < 10000 | CCNCc1cncc(-c2cc(C(=O)c3nc4cc(OC)c(OC)cc4[nH]3)ccc2C#N)c1 [Example 101, 4-(5,6-Dimethoxy-1H-benzoimidazole-2-carbonyl)-2-(5-ethylaminomethyl-pyridin-3-yl)-benzonitrile]
3 |  | CN(C)C1CCN(c2ccc3nc(C(=O)c4ccc(C#N)c(-c5cncc6ccccc56)c4)[nH]c3n2)CC1 [Example 165, 4-[5-(4-Dimethylamino-piperidin-1-yl)-3H-imidazo[4,5-b]pyridine-2-carbonyl]-2-isoquinolin-4-yl-benzonitrile]
260 |  | Cc1n[nH]c(C)c1-c1cc(C(=O)c2nc3ccc(N4CCNCC4)nc3[nH]2)ccn1 [Example 169, [2-(3,5-Dimethyl-1H-pyrazol-4-yl)-pyridin-4-yl]-(5-piperazin-1-yl-3H-imidazo[4,5-b]pyridine-2-yl)-methanone]
 | < 10000 | CN(C)Cc1cccc2[nH]c(C(=O)c3ccnc(-c4cncc5ccccc45)c3)nc12 [Example 79A, (4-Dimethylaminomethyl-1H-benzoimidazol-2-yl)-(2-isoquinolin-4-yl-pyridin-4-yl)-methanone]
 | < 10000 | Cc1nn(C)c(C)c1-c1cc(C(=O)c2nc3ccc(OC4CCNC4)nc3[nH]2)ccc1C#N (stereo not drawn) [Example 160, 4-[5-(Pyrrolidin-3-yloxy)-3H-imidazo[4,5-b]pyridine-2-carbonyl]-2-(1,3,5-trimethyl-1H-pyrazol-4-yl)-benzonitrile]
 | < 10000 | COc1ccc(F)c(F)c1-c1cc(C(=O)c2nc3c(CN(C)C)cccc3[nH]2)ccn1 [Example 79B, [2-(2,3-Difluoro-6-methoxy-phenyl)-pyridin-4-yl]-(4-dimethylaminomethyl-1H-benzoimidazol-2-yl)-methanone]
27 |  | CN1CCN(Cc2ccc3[nH]c(C(=O)c4ccnc(-c5cncc6ccccc56)c4)nc3c2)CC1 [Example 86, (2-Isoquinolin-4-yl-pyridin-4-yl)-[5-(4-methyl-piperazin-1-ylmethyl)-1H-benzoimidazol-2-yl]-methanone]
195 |  | Cc1n[nH]c(C)c1-c1cc(C(=O)c2nc3ccc(N4CCC(N(C)C)CC4)nc3[nH]2)ccn1 [Example 167, [5-(4-Dimethylamino-piperidin-1-yl)-3H-imidazo[4,5-b]pyridine-2-yl]-[2-(3,5-dimethyl-1H-pyrazol-4-yl)-pyridin-4-yl]-methanone]
 | < 10000 | COc1cccc(F)c1-c1cc(C(=O)c2nc3ccc(N4CCC(N(C)C)CC4)cc3[nH]2)ccn1 [Example 50, [6-(4-Dimethylamino-piperidin-1-yl)-1H-benzoimidazol-2-yl]-[2-(2-fluoro-6-methoxy-phenyl)-pyridin-4-yl]-methanone]
77 |  | O=C(c1ccnc(-c2cncc3ccccc23)c1)c1nc2ccc(S(=O)(=O)N3CCNCC3)cc2[nH]1 [Example 182, (2-Isoquinolin-4-yl-pyridin-4-yl)-[6-(piperazine-1-sulfonyl)-1H-benzoimidazol-2-yl]-methanone]
 | < 10000 | Cc1n[nH]c(C)c1-c1cc(C(=O)c2nc3ccc(N4CCC(N(C)C)CC4)cc3[nH]2)ccn1 [Example 129, [6-(4-Dimethylamino-piperidin-1-yl)-1H-benzoimidazol-2-yl]-[2-(3,5-dimethyl-1H-pyrazol-4-yl)-pyridin-4-yl]-methanone]
14 |  | O=C(c1ccnc(-c2cncc3ccccc23)c1)c1nc2ccc(N3CCCNCC3)nc2[nH]1 [Example 163, (5-[1,4]Diazepan-1-yl-3H-imidazo[4,5-b]pyridine-2-yl)-(2-isoquinolin-4-yl-pyridin-4-yl)-methanone]
5 |  | Cc1ncc2ccccc2c1-c1cc(C(=O)c2nc3cc(C(=O)N4CCNCC4)ccc3[nH]2)ccc1C#N [Example 174, 2-(3-Methyl-isoquinolin-4-yl)-4-[5-(piperazine-1-carbonyl)-1H-benzoimidazole-2-carbonyl]-benzonitrile]
60 | < 10000 | COc1ccc(F)c(F)c1-c1cc(C(=O)c2nc3cc(N4CCC(N(C)C)CC4)ccc3[nH]2)ccn1 [Example 103, [2-(2,3-Difluoro-6-methoxy-phenyl)-pyridin-4-yl]-[5-(4-dimethylamino-piperidin-1-yl)-1H-benzoimidazol-2-yl]-methanone]
548 |  | Cc1n[nH]c(C)c1-c1cc(C(=O)c2nc3ccc(N4CCCNCC4)nc3[nH]2)ccn1 [Example 170, (5-[1,4]Diazepan-1-yl-3H-imidazo[4,5-b]-pyridin-2-yl)-[2-(3,5-dimethyl-1H-pyrazol-4-yl)-pyridin-4-yl]-methanone]
26 | < 10000 | CN1CCC(NC(=O)c2ccc3nc(C(=O)c4ccnc(-c5cncc6ccccc56)c4)[nH]c3c2)CC1 [Example 99, 2-(2-Isoquinolin-4-yl-pyridine-4-carbonyl)-3H-benzoimidazole-5-carboxylic acid (1-methyl-piperidin-4-yl)-amide]
95 |  | Cc1nn(C)c(C)c1-c1cc(C(=O)c2nc3ccc(N4CCNCC4)nc3[nH]2)ccc1C#N [Example 189, 4-(5-piperazin-1-yl-3H-imidazo[4,5-b]pyridine-2-carbonyl)-2-(1,3,5-trimethyl-1H-pyrazol-4-yl)-benzonitrile]
 | < 10000 | COc1cccc(F)c1-c1cc(C(=O)c2nc3ccc(N4CCN(C)CC4)cc3[nH]2)ccn1 [Example 49, [2-(2-Fluoro-6-methoxy-phenyl)-pyridin-4-yl]-[6-(4-methyl-piperazin-1-yl)-1H-benzoimidazol-2-yl]-methanone]
 | < 10000 | CNS(=O)(=O)c1ccccc1-c1cc(C(=O)c2nc3ccc(N4CCC(N(C)C)CC4)cc3[nH]2)ccn1 [Example 120, 2-{4-[6-(4-Dimethylamino-piperidin-1-yl)-1H-benzoimidazole-2-carbonyl]-pyridin-2-yl}-N-methyl-benzenesulfonamide]
8 |  | N#Cc1ccc(C(=O)c2nc3ccc(N4CCNCC4)nc3[nH]2)cc1-c1cncc2ccccc12 [Example 166, 2-Isoquinolin-4-yl-4-(5-piperazin-1-yl-3H-imidazo[4,5-b]pyridine-2-carbonyl)-benzonitrile]
57 |  | CN(C)Cc1ccc2nc(C(=O)c3ccnc(-c4cncc5ccccc45)c3)[nH]c2c1 [Example 84, (6-Dimethylaminomethyl-1H-benzoimidazol-2-yl)-(2-isoquinolin-4-yl-pyridin-4-yl)-methanone]
 | < 10000 | COc1cccc(F)c1-c1cc(C(=O)c2nc3cc(CN4CCOCC4)ccc3[nH]2)ccn1 [Example 73, [2-(2-Fluoro-6-methoxy-phenyl)-pyridin-4-yl]-(5-morpholin-4-ylmethyl-1H-benzoimidazol-2-yl)-methanone]

Reference: patent US8598217B2, “Imidazole derivatives and their use as modulators of cyclin dependent kinases” (Astex Therapeutics Ltd., priority 2009, dated 2013)
